Experiments:
[1] = tested on: human umbilical vein epithelial cells (HUVECs); assay: NO and ONOO^− release by HUVECs following stimulation with oxidized LDL (Example 2); type: cell-based; details: calcium ionophore 1.0 μM, oxLDL 10 mg/dL, EPA 10.0 μM, rosuvastatin or ATM 1.0 μM
Experimental: An experiment was conducted to test the effects of EPA with rosuvastatin or atorvastatin active o-hydroxyl metabolite (“ortho-hydroxy atorvastatin” or “ATM”) on nitric oxide (NO) and peroxynitrite (ONOO^−) release by human umbilical vein epithelial cells (“HUVECs”) following stimulation with oxidized LDL. Nitric oxide bioavailability, peroxynitrite bioavailability, and the ratio of bioavailable nitric oxide to bioavailable peroxynitrite (NO/ONOO^−) serve as useful indicators of endothelial cell function. In particular, the NO/ONOO^− ratio can serve as an indicator of normal epithelial cell function.
In this experiment, HUVECs were equipped with prophyrinic nanosensors and then treated with calcium ionophore (1.0 μM). The HUVECs were then exposed to a solution of oxidized LDL (10 mg/dL).
HUVECs exposed to oxLDL were then treated with EPA alone (10.0 μM), a combination of EPA (10.0 μM) and rosuvastatin (1.0 μM), or a combination of EPA (10.0 μM) and ATM (1.0 μM).

[2] = tested on: human umbilical vein endothelial cells (HUVECs); assay: NO and ONOO^− release from HUVECs exposed to oxLDL, tandem electrochemical nanosensors (Example 3); type: cell-based; details: for increase in NO/ONOO^− ratio: versus treatment with oxLDL and vehicle only, statin 1.0 μM
Experimental: An experiment was conducted to test the effects of EPA with rosuvastatin, atorvastatin or o-hydroxyatorvastatin (an active hydroxyl metabolite, “ATM”) on nitric oxide (NO) and peroxynitrite (ONOO^−) release by human umbilical vein epithelial cells (“HUVECs”) following stimulation with oxidized LDL. Nitric oxide bioavailability, peroxynitrite bioavailability, and the ratio of bioavailable nitric oxide to bioavailable peroxynitrite (NO/ONOO^−) serve as useful indicators of endothelial cell function. In particular, the NO/ONOO^− ratio can serve as an indicator of normal epithelial cell function.
Human umbilical vein endothelial cells (HUVECs) were isolated into primary cultures from female donors by Clonetics (San Diego, Calif.) and purchased as proliferating cells. All cell culture donors were healthy, with no pregnancy or prenatal complications. […] The confluent cells (4 to 5×10^5 cells/35 mm dish) were placed with minimum essential medium containing 3 mM L-arginine and 0.1 mM BH4 [(6R)-5,6,7,8-tetrahydrobiopterin]. Before experimental use, the cells (from second or third passage) were rinsed twice with Tyrode-HEPES buffer with 1.8 mM CaCl2).
The effects of EPA treatment were tested in the absence and presence of statins in HUVECs following exposure to oxidized LDL (oxLDL). The oxLDL causes eNOS uncoupling and endothelial dysfunction to reproduced disease-like conditions. Venous blood from healthy normolipidemic volunteers was collected into Na-EDTA (1 mg/mL blood) vacuum tubes after a 12-hour fast. Plasma was immediately separated by centrifugation at 3,000 g for 10 minutes at 4° C. […] The purified LDL was dialyzed for 96 hours against PBS containing 0.3 mM EDTA at 4° C., then stored at 4° C.
A sample of LDL was dialyzed against Tris/NaCl Buffer (50 mM Tris in 0.15 M NaCl, pH 8.0) to remove the EDTA. Tris-NaCl buffer was added to the dialyzed n-LDL to adjust the protein concentration to 30 mg/mL. A 1-mL aliquot of 20 μM CuSO4 was added to 1 mL of dialyzed normal LDL. Oxidation at 37° C. was followed spectrophotometrically (234 nm) over a period of 24 hours until oxidation was complete. The oxLDL was then dialyzed at 4° C. with 4 L of Tris buffer, filtered with a 0.22 μm filter, and stored under nitrogen at 4° C.
Oxidation was monitored by the use of measurements of TBARS. Briefly, LDL was incubated with thiobarbituric acid (0.5 wt/vol, in H2SO4, 50 mM) for 30 minutes at 100° C. […] TBARS concentration was determined as malondialdehyde (MDA) equivalents with the use of an MDA standard curve.
Concurrent measurements of NO and ONOO^− were performed with tandem electrochemical nanosensors combined into one working unit with a total diameter of 200-400 nm. Their design was based on previously developed and chemically modified carbon-fiber technology. Each of the nanosensors was made by depositing a sensing material on the tip of a carbon fiber (length 4 to 5 μm, diameter 100-200 nm). The fibers were sealed with nonconductive epoxy and electrically connected to copper wires with conductive silver epoxy. Conductive films of polymeric Ni(II) tetrakis (3-methoxy-4-hydroxyphenyl) porphyrin and Mn(III) [2.2] paracyclophanylporphyrin were used for the NO and ONOO^− sensors, respectively.
The amperometric method (with a response time of 0.1 ms) provides a quantitative signal (current) that is directly proportional to changes (from basal levels) in NO or ONOO^− concentration. Amperometric measurements were performed with a Gamry III double-channel potentiostat. Basal NO or ONOO^− levels were measured by differential pulse voltammetry in separate experiments.
All measurements of NO and ONOO^− were performed on intact endothelial cells. The NO/ONOO^− nanosensor module was positioned 5±2 μm from the surface of each individual endothelial cell using a computer-controlled M3301 micromanipulator (x-y-z resolution of 0.2 μm) and microscope (both from World Precision Instruments, Berlin, Germany) fitted with a CD camera.

[3] = HUVECs exposed to oxLDL, EPA 10 μM
[4] = compared to treatment with oxLDL and vehicle only, EPA 10 μM

SMILES | NO [1] | NO/ONOO^− [1] | ONOO^− [1] | increase in NO/ONOO^− ratio ([2]; EPA 10 μM) | NO release [2, 3] | ONOO^− release [2, 3] | increase in NO release [2, 4] | reduction of ONOO^− release [2, 4] | increase in NO/ONOO^− ratio (in words) ([2]; HUVECs exposed to oxLDL, VAS2870 alone or with EPA and statin)
CC(C)c1c(C(=O)Nc2ccccc2O)c(-c2ccccc2)c(-c2ccc(F)cc2)n1CC[C@@H](O)C[C@@H](O)CC(=O)O [ATM, o-hydroxyatorvastatin] | 199 ± 20 nM | 0.8 | 236 ± 35 nM | 33% |  |  |  |  | 
CC/C=C\C/C=C\C/C=C\C/C=C\C/C=C\CCCC(=O)O [EPA, eicosapentaenoic acid] | 208 ± 32 nM | 1.0 | 203 ± 21 nM | 41% | 208 ± 32 nM | 203 ± 21 nM | 18% | 16% | 
c1ccc(Cn2nnc3c(Sc4nc5ccccc5o4)ncnc32)cc1 [VAS2870] |  |  |  |  |  |  |  |  | two-fold
CC(C)c1c(C(=O)Nc2ccccc2)c(-c2ccccc2)c(-c2ccc(F)cc2)n1CC[C@@H](O)C[C@@H](O)CC(=O)O [atorvastatin] |  |  |  | 84% |  |  |  |  | 
CC(C)c1nc(N(C)S(C)(=O)=O)nc(-c2ccc(F)cc2)c1/C=C/[C@@H](O)C[C@@H](O)CC(=O)O [rosuvastatin] | 191 ± 33 nM | 0.8 | 252 ± 39 nM | 21% |  |  |  |  | 

Reference: US20190060308A1, “PHARMACEUTICAL COMPOSITION COMPRISING AN OMEGA-3 FATTY ACID AND A HYDROXY-DERIVATIVE OF A STATIN AND METHODS OF USING SAME” (Amarin Pharmaceuticals Ireland Limited, priority 2012, published 2019)
